Assay [1] has as its target T1, nicotinic acetylcholine receptor (nAChR), human α4β2 receptor on SH-EP1_α4β2 cells (Homo sapiens, UniProt P17787+P43681).
T1 construct: expressed in transfected cells; host or cells: SH-EP1 cells (SH-EP1_α4β2), gift from Dr. Jie Wu
As to the kind of experiment: acetylcholine binding to nAChR on SH-EP1_α4β2 cells measured by SPR. Particulars: SH-EP1_α4β2 cells on gold; 50, 100, 200 nM. The protocol: (§1) Most drugs are small molecules, and over 50% drug targets are membrane proteins.
(§2) CAR angle was set at 61.6 degrees with a sensitivity of 112 RIU^−1. The binding kinetic curves (black) were obtained by averaging the CAR response of seven cells and globally fitted to the first-order kinetics (red) (see Supplementary Figure 12b for the response of individual cells).
(§3) All the cell-related experiments including CAR, SPR, transmitted and fluorescence measurements (Figs. 4–6) were performed on an objective-based SPR microscope setup, which consisted of an inverted microscope (Olympus IX-81) and a ×60 (NA 1.49) oil-immersion objective. The light source for CAR and SPR imaging was a superluminescent light-emitting diode (SLED) (SLD-260-HP-TOW-PD-670, Superlum, Ireland) with 670 nm wavelength and 1 mW power set by a SLED current driver (PILOT4-AC, Superlum). The SLED was mounted on a translation stage (PT3, Thorlabs) with a motorized actuator (Z825B, Thorlabs) for adjusting incident angle. […] The light source for transmitted and fluorescence imaging were the stocking halogen and mercury lamp of the microscope, respectively. The excitation and emission wavelength used for imaging Alexa Fluor 488 labelled WGA were 488 nm and 518 nm, respectively, and the power density on the sample was ~0.1 mW/cm^2. A CMOS camera (ORCA-Flash 4.0, Hamamatsu) was used to record the images. […]

The target in assay [2] is T1, nicotinic acetylcholine receptor (nAChR), human α4β2 receptor on SH-EP1_α4β2 cells. Put plainly: acetylcholine binding to nAChR on fixed SH-EP1_α4β2 cells measured by CAR imaging. The note with it: 61.6 degrees, average of seven cells, global fit. The protocol:
as §1, §2, §3

For a further assay, the system named is wild-type SH-EP1 cells. As to the kind of experiment: control: acetylcholine on wild-type SH-EP1 cells (no nAChR) measured by CAR. The format is binding. The note with it: wild-type SH-EP1 cells without nAChR, 50, 100, 200 nM. The protocol: as §1, §2, §3

T1 sequence (P43681 29-627 limits assumed): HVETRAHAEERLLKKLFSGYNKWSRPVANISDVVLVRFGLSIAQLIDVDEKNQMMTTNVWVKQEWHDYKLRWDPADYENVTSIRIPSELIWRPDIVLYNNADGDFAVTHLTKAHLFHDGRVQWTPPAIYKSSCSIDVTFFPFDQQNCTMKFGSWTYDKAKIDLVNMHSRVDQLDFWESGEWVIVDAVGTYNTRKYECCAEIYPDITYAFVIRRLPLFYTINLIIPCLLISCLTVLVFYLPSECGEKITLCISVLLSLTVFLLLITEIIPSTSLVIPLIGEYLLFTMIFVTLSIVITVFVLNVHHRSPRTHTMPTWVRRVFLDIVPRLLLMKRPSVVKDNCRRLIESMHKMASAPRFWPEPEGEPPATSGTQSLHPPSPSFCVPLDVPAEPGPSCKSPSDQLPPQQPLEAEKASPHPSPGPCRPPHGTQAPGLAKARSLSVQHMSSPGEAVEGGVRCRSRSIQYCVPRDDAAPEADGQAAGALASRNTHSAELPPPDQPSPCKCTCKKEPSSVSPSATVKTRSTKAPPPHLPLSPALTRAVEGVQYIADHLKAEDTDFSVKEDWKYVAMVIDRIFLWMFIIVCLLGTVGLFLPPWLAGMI
T1 sequence (P17787 26-502): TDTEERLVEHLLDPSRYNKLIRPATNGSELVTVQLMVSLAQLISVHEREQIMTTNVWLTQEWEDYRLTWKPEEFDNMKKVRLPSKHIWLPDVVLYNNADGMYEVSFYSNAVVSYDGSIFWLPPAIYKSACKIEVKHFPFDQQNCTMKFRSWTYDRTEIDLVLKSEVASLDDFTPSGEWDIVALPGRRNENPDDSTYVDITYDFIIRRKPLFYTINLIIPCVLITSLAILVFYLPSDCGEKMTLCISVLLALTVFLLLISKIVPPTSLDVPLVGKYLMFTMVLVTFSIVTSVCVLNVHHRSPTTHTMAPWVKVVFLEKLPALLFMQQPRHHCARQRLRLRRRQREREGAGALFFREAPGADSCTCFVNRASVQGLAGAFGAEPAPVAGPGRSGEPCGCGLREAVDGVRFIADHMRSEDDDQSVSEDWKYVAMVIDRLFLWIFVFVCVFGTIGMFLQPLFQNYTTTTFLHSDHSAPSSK

As to `CC(=O)OCC[N+](C)(C)C` [acetylcholine], the SPR response result in assay [1] is listed as “no measurable response”. Moreover, in assay [2], the kd result is “(1.5±0.1)×10^-3 s^-1”. Further, the CAR response result in the assay on wild-type SH-EP1 cells is “negligible”; with wild-type SH-EP1 cells (listed as Acetylcholine), “No clear CAR response”.

The record behind these values is article PMC8185113, “Critical angle reflection imaging for quantification of molecular interactions on glass surface” (Nature Communications, 2021).
